Where “and” joins values, the source holds several entries; their conditions need not be identical. Identical values can stand only once.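 Growth conditions: 96-well plates. Treatment: test compound, 48 hours, 5 concentrations. Analysis: linear interpolation between bracketing concentrations; unreached endpoints set to highest concentration. GI50: concentration for 50% inhibition of growth. TGI: concentration producing complete growth inhibition.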
Tests used:
Experiment in all cases: NCI anticancer screen, dose series, 48 h
DU-145 prostate = tested on: DU-145 prostate
SK-OV-3 ovarian = tested on: SK-OV-3 ovarian
CAKI-1 renal = tested on: CAKI-1 renal
HT29 colon = tested on: HT29 colon
EKVX NSCLC = tested on: EKVX NSCLC
HCT-116 colon = tested on: HCT-116 colon
SF-268 CNS = tested on: SF-268 CNS
COLO 205 colon = tested on: COLO 205 colon
K-562 leukemia = tested on: K-562 leukemia
HL-60(TB) leukemia = tested on: HL-60(TB) leukemia

Row | SMILES | GI50 (DU-145 prostate) | TGI (DU-145 prostate) | GI50 (SK-OV-3 ovarian) | TGI (SK-OV-3 ovarian) | GI50 (CAKI-1 renal) | TGI (CAKI-1 renal) | GI50 (HT29 colon) | TGI (HT29 colon) | GI50 (EKVX NSCLC) | TGI (EKVX NSCLC) | GI50 (HCT-116 colon) | TGI (HCT-116 colon) | GI50 (SF-268 CNS) | TGI (SF-268 CNS) | GI50 (COLO 205 colon) | TGI (COLO 205 colon) | GI50 (K-562 leukemia) | TGI (K-562 leukemia) | GI50 (HL-60(TB) leukemia) | TGI (HL-60(TB) leukemia)
1 | C=C(C(=O)OC)[C@@H]1C[C@@H](O)[C@]2(C)CC/C=C(\C)CCC[C@H](C)[C@H](O)C1O2 | 45.5 µM | > 100 µM | > 100 µM | > 100 µM | 45.5 µM | > 100 µM | 53 µM | > 100 µM | 55.9 µM | > 100 µM | 21.1 µM | 58 µM | 65 µM | > 100 µM | 36.1 µM | > 100 µM | 22.2 µM | 62.2 µM | – | –
2 | COc1ccc2c(c1)C(=O)c1c-2n(CCCCl)c(=O)c2cc(N(C)C)ccc12 | > 100 µM | > 100 µM | 36.2 µM | > 100 µM | 94.6 µM | > 100 µM | > 100 µM | > 100 µM | > 100 µM | > 100 µM | 43.9 µM | > 100 µM | 33.3 µM | > 100 µM | > 100 µM | > 100 µM | > 100 µM | > 100 µM | > 100 µM | > 100 µM
3 | CC(C)(CCC(C)(C)c1ccccc1)c1ccccc1 | – | 38.5 µM | – | 82.6 µM | – | 48.2 µM | – | 27.8 µM | – | 32.4 µM | – | 29.4 µM | – | 33.3 µM | – | 33.5 µM | – | 61.2 µM | – | 32.5 µM
4 | CC1(C)CC[C@]2(C(=O)O)CC[C@]3(C)[C@H](CC[C@@H]4[C@@]5(C)CCC(=O)C(C)(C)[C@@H]5CC[C@]43C)[C@H]2[C@H]1OC(=O)C(F)(F)F | 14.1 µM | 34 µM | 13.4 µM | 54 µM | 12.8 µM | 25.7 µM | 4.06 µM | 16.7 µM | 14.5 µM | 30.5 µM | 4.8 µM | 17.8 µM | 15.3 µM | 33.6 µM | 6.58 µM | 23.6 µM | 3.61 µM | 20.9 µM | 3.16 µM | 13.6 µM
5 | CN1CCN(c2cc(Nc3cc(C4CC4)[nH]n3)nc(Nc3ccc(CC(=O)NCc4cccc(F)c4)cc3)n2)CC1 | 2.03 µM | 11.5 µM | 0.932 µM | 12.9 µM | 0.823 µM | 4.74 µM | 0.379 µM | 11.6 µM | 3.41 µM | 32.4 µM | 0.211 µM | 6.87 µM | 1.23 µM | 12.3 µM | 0.0713 µM | 0.607 µM | 0.423 µM | 11.6 µM | 0.713 µM | 3.06 µM
6 | COc1cc2c3c(n(CCCNCCN4CCOCC4)c(=O)c2cc1OC)-c1cc2c(cc1C3=O)OCO2 | 0.678 µM | 3.8 µM | 4.68 µM and 1.27 µM | – | 2.61 µM | 19.4 µM | 2.2 µM and 1.78 µM | 50 µM and > 100 µM | 8.93 µM and 7.24 µM | 18.2 µM and 18.6 µM | < 0.005 µM | 0.0975 µM | – | 8.09 µM and > 65.8 µM | 2.01 µM and 7.31 µM | 50 µM and 45.8 µM | 7.72 µM | > 67.1 µM | 0.321 µM and 2.7 µM | –
7 | COc1ccc(Nc2c[nH]c(=O)[nH]c2=O)cc1 | – | > 100 µM | – | > 100 µM | – | > 100 µM | – | > 100 µM | – | > 100 µM | – | > 100 µM | – | – | – | > 100 µM | – | > 100 µM | – | > 100 µM
8 | Cc1ccccc1NC(=O)c1sc2nc3c(cc2c1N)C(=O)CCC3 | 2.7 µM | 8.41 µM | 2.72 µM | > 100 µM | 6.74 µM | > 100 µM | 1.59 µM | 23.7 µM | 6.82 µM | > 100 µM | 3.56 µM | > 100 µM | 8.51 µM | > 100 µM | 2.13 µM | 6.69 µM | 0.771 µM | > 100 µM | 3.1 µM | > 100 µM
9 | Oc1ccc(SCc2ccc(NCc3ccccc3)cc2)cc1 | – | > 100 µM | – | > 100 µM | – | > 100 µM | – | 48.3 µM | – | 50.3 µM | – | > 100 µM | – | > 100 µM | – | > 100 µM | – | > 100 µM | – | 68.9 µM
10 | Clc1ccc(Nc2nc3ccccc3c3occc23)cc1 | 7.01 µM | 13.5 µM | 8.15 µM | 16 µM | 3.07 µM | 10.2 µM | – | – | 8.02 µM | 15.9 µM | 8.74 µM | 15.7 µM | 8.09 µM | 16.7 µM | 6 µM | 13 µM | 13.6 µM | > 50 µM | 24.4 µM | > 50 µM
11 | CCN1CCCCC(=N\O)/C(=N/O)CCCC1 | – | > 100 µM | – | > 100 µM | – | > 100 µM | – | > 100 µM | – | > 100 µM | – | > 100 µM | – | > 100 µM | – | > 100 µM | – | – | – | > 100 µM
12 | C=CCNc1cccc2c1C(=O)c1ccccc1C2(O)CC=C (stereo not given) | 24.9 µM | 63 µM | – | – | – | – | 16.8 µM | 36.7 µM | 31.8 µM | > 100 µM | 17.7 µM | 32.3 µM | 62.7 µM | > 100 µM | 16.2 µM | 36.1 µM | 31.1 µM | 95.2 µM | 47.2 µM | > 100 µM
13 | C=C1C(=O)O[C@H]2[C@H]1CC/C(COC(=O)C(=O)c1cn(C)c3ccc(OC)cc13)=C\CC[C@@]1(C)O[C@@H]21 | 6.67 µM | 15.5 µM | 13.6 µM | 29.3 µM | 7.25 µM | 21.8 µM | 2.23 µM | 5.4 µM | 8.19 µM | 16.3 µM | 3.61 µM | 7.38 µM | 5.71 µM | 12.5 µM | – | – | 5.97 µM | > 61.3 µM | 3.03 µM | 8.89 µM
14 | COc1ccc(Cn2cc(Cn3c(=O)c(-c4nc5ccccc5[nH]4)cc4ccccc43)nn2)c(OC)c1OC | 0.22 µM | 0.769 µM | – | – | 0.35 µM and 0.396 µM | 1.47 µM and 3.92 µM | 0.0712 µM | 4.05 µM | 0.904 µM and 0.605 µM | 50 µM and > 100 µM | 0.094 µM and 0.0954 µM | 1.25 µM and 1.73 µM | 0.55 µM and 0.477 µM | – | – | – | 0.162 µM and 0.191 µM | 50 µM and > 100 µM | 0.114 µM and 0.306 µM | 50 µM and > 100 µM

From PubChem BioAssay (NCI)
